From patent US7186703B2, “Derivatives of branched-chain lipophilic molecules and uses thereof” (D-Pharm Ltd., priority 2000, dated 2007)
Where two headings read alike, the source gives them in different places.

Columns and labels:
[1] = test system: blood tumor barrier / blood brain barrier; experiment: Unilateral administration in rats with bilateral C6 gliomas, Evans blue staining of brain sections; format: in vivo, SD rats; details: 10 μM 3,12-DEG-HPO4Na; 40 μM 3,12-Na; 25% mannitol; unilateral infusion
Experimental: FIGS. 2A–C depict Evans blue accumulation in brain sections of rats bearing bilateral gliomas following unilateral administration of a compound as follows: 10 μM 3,12-DEG-HPO4Na (FIG. 2A), 40 μM 3,12-Na (FIG. 2B) or mannitol 25% (FIG. 2C).
Evans Blue and Fluoroscein penetration into gliomas tumors was examined following unilateral infusion into the external carotis artery of either 10 μM 3,12-DEG-HPO4Na (FIG. 2A), 40 μM 3,12-Na BFA (FIG. 2B) or 25% mannitol (FIG. 2C). The relevant compound was infused into rat brains at 9 to 12 days following inoculation of C6 glioma cells as described in Example 23.

[2] = test system: C6 glioma tumor; experiment: Anti-tumor effect in C6 glioma-bearing rats, tumor volume and appearance (Example 28); format: in vivo, Sprague Dawley (SD) rats
Experimental: The anti-tumor effect of DP-BFA was evaluated by monitoring tumor volume and appearance in a model system of C6 glioma-bearing rats. Sprague Dawley (SD) rats were inoculated with 2.5×10^5 C6 glioma cells in 5 μl PBS as follows. Rats were mounted into a stereotactic head holder in a flat-skull position. After reflections of the periosteum, a burr hole was preformed with a 1 mm drill in the following coordinates: bregma—1.0, 3.50 mm lateral from the midline on the left side, and at a depth of 3.50 mm. The cell suspension was manually injected at a depth of 3.50 mm using a 10 μl Hamilton syringe.
The pterigo-palatina artery was legated, and the common carotid artery was clamped at the time of infusion.
Five days after the inoculation of the C6 tumor cells, the rats were anesthetized with Ketamin/xylazin (1:1) 0.1 ml/100 grams body weight, perfused with saline and fixed with 4% Formaldehyde solution. Brains were removed and cryoprotected in a sucrose solution for 48 h. The brains were then sliced in coronal section, stained with Haematoxylin-Eosine and underwent pathology evaluation.

[3] = test system: C6 glioma cell line; experiment: MTT cytotoxicity, C6 glioma; format: cell-based, rat; details: three days, read-out: EC50 (50% reduction in cell viability)
Experimental: The cytotoxic activity of various phospho-derivatives of branched-chain fatty acids (DP-BFAs) was assayed in vitro in cell cultures that include normal and malignant cell types. The following cell systems were used: • Primary fibroblasts (human) • Normal bone marrow (BM) cells (mouse) • Primary bronchial epithelial cells (human, from Clonetics, cat. no. CC-2541) • Caco-2—colon cancer cell line (human, ATTC, HTB-37) • C6 glioma cell line (rat, ATCC, CRL-2199) • Neuro2a—neuroblastoma cell line (mouse, ATCC, CCL-131) • SKBR-3—breast cancer cell line (human, ATTC, HTB-30) • HL60—myeloid leukemia cell line (human, ATCC, CCL-240) • U937—myeloid leukemia cell line (human)
Cells were seeded in a microtiter plate in MEM containing 2 mM L-glutamine, 100 units/ml penicillin, 100 ug/ml streptomycin and 10% FCS at 37° C. The cultured cells were incubated, during their linear growth phase in the absence (control group) or presence of various DP-BFAs as indicated. The final concentrations of the tested DP-BFAs ranged from 1.5 to 200 microMolars. At the end of the incubation period, which was five days for the bone marrow cells and three days for all the other cell lines, the cytotoxic effect of the added P-BFA on the cells was estimated by using the colorimetric MTT assay. The MTT assay (Mosmann (1983) J. Immunol Methods 65: 55–63) measures mitochondrial reductase activity and serves for quantitative assessment of cellular viability. Drug concentration that causes 50% reduction in cell viability in comparison to the control group, is defined as EC50. The EC50 values of the tested DP-BFA compounds were calculated from dose response curves established for each of the different assayed cell lines.
Each EC50 value is an average of EC50 values derived from 1–5 independent experiments.

[4] = test system: Chinese hamster ovary (CHO) AA8 cell line; experiment: LDH release toxicity assay in cultured CHO AA8 cells; format: cell-based; details: 1 hour incubation, read-out: LC50 (the source's name)
Experimental: Various DP-BFA molecules were screened in cultured Chinese hamster ovary (CHO) AA8 cell line in order to establish their toxicity. LC50 values, i.e. the concentrations causing death in 50% of cell population, were calculated from dose response curves. LC50 values of phospho-BFAs were compared to those of the corresponding branched fatty acids (=carbo-BFAs).
Lactate dehydrogenase (LDH) release was used as an assay for the integrity of the cells membrane and, thus, for estimation of toxicity. Cells (2×10^5/ml) were seeded (150 μl/well) in 96 well plates, in RPMI-1640 medium containing 10% FCS. After two days, tested DP-BFA compounds or the control compound myristic acid were added to the plates in declining concentrations ranging from 500 to 1 μg/ml. Cells were harvested after one hour. […] Other controls included, two blank wells and five wells containing cells with no additional drugs. Following centrifugation (1500 rpm, 5 min), 75 μl of the supernatant was transferred to a new plate with 45 μl of an LDH assay mix (Tox-7 kit, Sigma). After 10–20 minutes at room temperature, absorbance was measured using an Elisa Reader 490 nm.
Each experiment was performed in triplicate.

[5] = test system: blood brain barrier (BBB); experiment: Duration of the effect on BBB opening in rat brain; format: in vivo, Sprague Dawley rats; details: EC50 concentrations of the tested compounds
Source text: The effects of DP-BFA on Evans Blue and Fluoroscein extravasation in rat brain were examined at various time points following DP-BFA administration. Various DP-BFA compounds were infused, over a period of 30 seconds, into the external carotid artery of Sprague Dawley rats, following the procedure described above in Example 17. The tested compounds were used at their EC50 concentrations. […] Two compounds, 3,12-PC and 3,12-MEG-PC, both comprising a phosphocholine moiety, have shown D1/2 which was 4 times longer than the other tested 3,12-BFA derivatives, i.e. D1/2 of around 120 min.

Molecule | Evans Blue staining of tumor and non-tumor brain (FIG. 2, in words) [1] | CC50 [4] | D1/2 (duration of at least 50% opening of the BBB) [5] | further results
2-(4′-Hexadecanoyloxy)ethoxyethyl phosphate [3,12-DEG-PO4] | only in the tumor tissue in the ipsilateral hemisphere | – | – | anti-tumor effect, invasiveness and rate of growth (in words) ([2]; rat, in vivo): significant anti-tumor effect; Tumor volume ([2]; single dose 5 to 20 μM, 72 h post inoculation, vehicle 8.1±2.2): 1.6±0.2 mm^3
CCCCCCCCCCCCC(CCC)C(=O)OCCOCCOP(=O)([O-])OCC[N+](C)(C)C (stereo not shown) [3,12-DEG-PC, 2-(2′-Propyltetradecanoyloxy)ethoxyethylphosphocholine] | – | – | – | EC50 ([3]; Rattus norvegicus, 72 h): 95 µM
CCCCCCCCCCCCC(CCC)C(=O)OCCOCCOP(=O)([O-])[O-].[Na+].[Na+] (stereo not shown) [3,12-DEG-PO4Na2, 2-[2′-(2″-Propyltetradecanoyloxy)-ethoxy]ethyl Disodium Phosphate] | – | 320 µM | – | EC50 [3]: 38 µM
CCCCCCCCCCCCC(CCC)C(=O)OCCOP(=O)([O-])OCC[N+](C)(C)C (stereo not shown) [3,12-MEG-PC, 2-(2′-Propyltetradecanoyloxy)ethylphosphocholine] | – | – | around 120 min | –
CCCCCCCCCCCCC(CCC)C(=O)[O-].[Na+] (stereo not shown) [3,12-Na, reference compound] | equally permeabilized tumor and non-tumor brain tissues | 165 µM | – | –
CCCCCCCCCCCCC(CCC)OP(=O)([O-])OCC[N+](C)(C)C (stereo not shown) [3,12-PC, 4-Hexadecanyl phosphocholine] | – | – | around 120 min | –
